As usually defined, the IC50 is the point on the concentration scale where inhibition reaches its midpoint. A lower IC50 goes with greater potency.

Structures are written as SMILES.

For test [1], the target named is TEAD1(210-426) binding to YAP(50-100) (Homo sapiens, UniProt P28347). As to the kind of experiment: TR-FRET Assay for TEAD1(210-426) Binding to YAP(50-100). The following applies: His-TEAD 10 nM, YAP-Biotin peptide 50 nM. In outline:
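10 nM His-TEAD1 preincubated 30 min at room temperature with compound (3-fold dilutions, 12 points, 1% DMSO), then 50 nM biotin-YAP peptide added.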
On the technique in general: TR-FRET usually uses a lanthanide donor and a delayed reading to cut background.

Test [2] relates to MSTO-211H cells. Kind of test: Proliferation Assay (CellTiter-Glo Luminescent Cell Viability Assay). It is filed as cell-based. The following applies: Homo sapiens, 96 hours treatment. An outline of the steps: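 MSTO-211H cells, 1,500/well in RPMI 1640 with 10% FBS, plated overnight, then treated 96 h with 9-point 3-fold compound series in duplicate (DMSO below 0.5%). Viability by CellTiter-Glo luminescence; inhibition relative to DMSO wells, IC50 by four-parameter fit.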
A general note: Cellular ATP, detected with luciferase, serves as a proxy for viable cell number.

Sequence of TEAD1(210-426) binding to YAP(50-100) (P28347 209-426): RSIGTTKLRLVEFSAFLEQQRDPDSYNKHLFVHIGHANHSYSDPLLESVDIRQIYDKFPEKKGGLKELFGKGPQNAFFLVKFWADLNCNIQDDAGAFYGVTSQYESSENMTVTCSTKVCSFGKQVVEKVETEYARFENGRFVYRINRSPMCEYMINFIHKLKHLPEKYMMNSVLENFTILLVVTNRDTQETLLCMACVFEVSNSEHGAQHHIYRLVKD

In the case of `O=c1cc(-c2nn(-c3ccc(C(F)(F)F)cc3)c3ccccc23)ccn1Cc1cnccn1` [Compound 63, 1-(pyrazin-2-ylmethyl)-4-(1-(4-(trifluoromethyl)phenyl)-1H-indazol-3-yl)pyridin-2(1H)-one], the IC50 was not above 100 nM in test [1] and not above 1000 nM in test [2].
Consider `CNc1ccnc(Cn2ccc(-c3nn(-c4ccc(C(F)(F)F)cc4)c4ccc(F)cc34)cc2=O)n1` [Compound 54, 4-(5-fluoro-1-(4-(trifluoromethyl)phenyl)-1H-indazol-3-yl)-1-((4-(methylamino)pyrimidin-2-yl)methyl)pyridin-2(1H)-one], for which the IC50 in test [1] is not above 100 nM; in test [2] it was not above 1000 nM.
For the compound `CNc1ccnc(Cn2ccc(-n3nc(-c4ccc(C(F)(F)F)cc4)c4ncccc43)cc2=O)n1` [Compound 48, 1-((4-(methylamino)pyrimidin-2-yl)methyl)-4-(3-(4-(trifluoromethyl)phenyl)-1H-pyrazolo[4,3-b]pyridin-1-yl)pyridin-2(1H)-one], the IC50 is not above 100 nM in test [1] and not above 1000 nM in test [2].
The like results for `COc1ccnc(Cn2ccc(-c3nn(-c4ccc(C(F)(F)F)cc4)c4nccnc34)cc2=O)n1` [Compound 105, 1-((4-methoxypyrimidin-2-yl)methyl)-4-(1-(4-(trifluoromethyl)phenyl)-1H-pyrazolo[3,4-b]pyrazin-3-yl)pyridin-2(1H)-one] were, in that order, 100 to 1000 nM and not above 1000 nM.
For `O=c1cc(-c2nn(-c3ccc(C(F)(F)F)cc3)c3ncccc23)ccn1Cc1ncccn1` [Compound 115, 1-(pyrimidin-2-ylmethyl)-4-(1-(4-(trifluoromethyl)phenyl)-1H-pyrazolo[3,4-b]pyridin-3-yl)pyridin-2(1H)-one] the same measures were not above 100 nM and not above 1000 nM.
`CN(CCO)c1ccnc(Cn2ccc(-c3nn(-c4ccc(C(F)(F)F)cc4)c4ncccc34)cc2=O)n1` [Compound 75, 1-((4-((2-hydroxyethyl)(methyl)amino)pyrimidin-2-yl)methyl)-4-(1-(4-(trifluoromethyl)phenyl)-1H-pyrazolo[3,4-b]pyridin-3-yl)pyridin-2(1H)-one]: the IC50 in test [1] is not above 100 nM; in test [2], not above 1000 nM.
For the compound `C[C@@H](c1ccccn1)n1ccc(-c2nn(-c3cccc(C(F)(F)F)c3)c3cccnc23)cc1=O` [Compound 6, (S)-1-(1-(pyridin-2-yl)ethyl)-4-(1-(3-(trifluoromethyl)phenyl)-1H-pyrazolo[4,3-b]pyridin-3-yl)pyridin-2(1H)-one], the IC50 in test [1] was in the range of 100 to 1000 nM; in test [2], 1000 to 10000 nM.
Consider `COCCNc1ccnc(Cn2ccc(-c3nn(-c4ccc(C(F)(F)F)cc4)c4ncccc34)cc2=O)n1` [Compound 76, 1-((4-((2-methoxyethyl)amino)pyrimidin-2-yl)methyl)-4-(1-(4-(trifluoromethyl)phenyl)-1H-pyrazolo[3,4-b]pyridin-3-yl)pyridin-2(1H)-one], for which the IC50 is not above 100 nM in test [1] and not above 1000 nM in test [2].
`O=c1cc(-c2nn(-c3ccc(C(F)(F)F)cc3)c3c(F)cccc23)ccn1Cc1ccnc(OCCO)n1` [Compound 133, 4-(7-fluoro-1-(4-(trifluoromethyl)phenyl)-1H-indazol-3-yl)-1-((2-(2-hydroxyethoxy)pyrimidin-4-yl)methyl)pyridin-2(1H)-one]: the IC50 in test [1] was not above 100 nM; in test [2], not above 1000 nM.
For `CN(C)c1nccc(Cn2ccc(-c3nn(-c4ccc(C(F)(F)F)cc4)c4ccccc34)cc2=O)n1` [Compound 66, 1-((2-(dimethylamino)pyrimidin-4-yl)methyl)-4-(1-(4-(trifluoromethyl)phenyl)-1H-indazol-3-yl)pyridin-2(1H)-one], the IC50 in test [1] is not above 100 nM; in test [2], not above 1000 nM.
Regarding `O=c1cc(-n2nc(-c3ccc(C(F)(F)F)cc3)c3nccnc32)ccn1Cc1ccnc(NCCO)n1` [Compound 50, 1-((2-((2-hydroxyethyl)amino)pyrimidin-4-yl)methyl)-4-(3-(4-(trifluoromethyl)phenyl)-1H-pyrazolo[3,4-b]pyrazin-1-yl)pyridin-2(1H)-one], the results for the concentration for half-maximal inhibition (IC50) in test [1] and in test [2] were not above 100 nM and not above 1000 nM, respectively.

Source of the values: patent US20250154127A1, “BICYCLIC HETEROARYL COMPOUNDS AND USES THEREOF” (ETERN BIOPHARMA (SHANGHAI) CO., LTD., priority 2022, published 2025).
